Results taken from paper PMC8253137, “Microbiota-derived butyrate is an endogenous HIF prolyl hydroxylase inhibitor” (Gut Microbes, 2021).
Entries after “also recorded” stand apart in the source; their conditions may differ.

Legend:
PHD2_181-402 [1] = molecular target: T1, PHD2_181-402 (Homo sapiens, UniProt Q9GZT9); experiment: PHD2_181-402 inhibition assay (bioluminescent succinate detection, Succinate-Glo); assay type: biochemical
Description: PHD2_181-402 activity and inhibition assays were performed with the Succinate-Glo JmjC Demethylase/Hydroxylase Assay Kit (Promega) according to manufacturer protocol and as detailed in Alves et al. […] The enzymatic reaction was incubated at room temperature for 10 minutes, after which succinate formation was detected according to manufacturer protocol. […] Then, 20 µL of Succinate Detection Reagent II was added to the reactions and incubated for 10 min at room temperature before the luciferase-generated luminescence was recorded on a plate-reading luminometer. Succinate standard curves were used to determine the sensitivity and linear range of the bioluminescent succinate detection. […] Succinate standards were serially diluted two-fold from 15 µM to 58.6 nM and a 0 succinate blank. 10 µL of succinate standards were used for detection as described above. […] Reactions were incubated at room temperature for 10 minutes and succinate detected. […] Measured IC50s were calculated from fitting the percentage activity data to the [Inhibitor] vs. normalized response – variable slope least squares nonlinear regression in GraphPad Prism 9. True IC50s were calculated from measured IC50s with the equation derived by Wu et al.[26] describing the relationship between the measured IC50 of an inhibitor and the percentage of substrate conversion.

PHD2_181-402 [2] = molecular target: T1, PHD2_181-402; experiment: WaterLOGSY 1D NMR binding; details: for binding to PHD2_181-402 (WaterLOGSY signal): 10 mM ligand, 25 μM PHD2_181-402
From the text: Next, we established whether butyrate binds directly to PHD2_181-402 using 1D WaterLOGSY NMR.[28] This method enables sensitive and robust detection of binding (dissociation constants as weak as μM to low mM) based on the magnetization transfer between water molecules, proteins, and ligands of interest in close proximity via dipolar proton–proton cross-relaxation (nuclear Overhauser effect, NOE). […] Binding and non-binding ligands can be distinguished in a WaterLOGSY spectrum via their opposite signs in relation to water for their corresponding peaks.
Following an established protocol, all NMR analyses were performed using PHD2_181-402 and the diamagnetic element (Zn^2+) rather than a paramagnetic element such as Fe^2+ that would result in inhibitive signal reduction or loss due to fast relaxation induced by the unpaired electron.[63]
Water-Ligand Observed via Gradient SpectroscopY (WaterLOGSY): Measurements were carried out on a 600 MHz triple-resonance Bruker cryoprobe spectrometer.[28] Selective water inversion was achieved using an iBURP shaped pulse with 15 ms length and an inversion bandwidth of 0.4 ppm. The mixing time was set to 1 s, and the water was suppressed using double Watergate. 1024 scans were acquired with an interscan delay of 2 s. The sample concentration was 25 µM of PHD2_181-402 mixed with 10 mM of the different ligands in NMR buffer (Tris 50 mM, NaCl 20 mM, ZnCl2 100 μM) at pH 6.5.

PHD2_181-402 [3] = molecular target: T1, PHD2_181-402; experiment: Microscale thermophoresis (MST) binding
murine enteroids = experiment: HIF stabilization in differentiated murine enteroids; assay type: cell-based, mice; details: butyrate with or without 1 mM MCPA, 4 h
Description: Murine intestinal organoids/enteroids were isolated from wild-type C57BL/6 mice and cultured as previously described.[60] Briefly, colonic tissues were minced and then enzymatically digested and dissociated in GentleMACS tubes (Milteny Biotec). The homogenized tissues were then filtered through a 70 µm cell strainer and resuspended in Matrigel (Corning). Cells were cultured in L-WRN conditioned media until ready for differentiation into an epithelial lineage, in which the cells were incubated for 2 d in L-WRN media diluted 5-fold with DMEM:F-12 supplemented with 10% calf serum, 1% penicillin/streptomycin, and 1% GlutaMAX™. […] MCPA treatment also includes a 2 h pretreatment with MCPA before butyrate was added.
TRIzol® reagent (ThermoFisher Scientific) was used to isolate total RNA from T84 cells. […] Quantitative PCR analysis was performed using the Power SYBR™ Green master mix (Applied Biosystems) in a thermocycler. Fold change in expression of target mRNA relative to β-actin (ACTB) mRNA was calculated using the delta-delta Ct method. […]
T84 cells were rinsed with PBS and collected and lysed in 200 µL of radioimmunoprecipitation assay (RIPA, 50 mM Tris-HCl pH 8.0, 1 mM EDTA, 1% Triton X-100, […], 0.5% sodium deoxycholate, 150 mM NaCl) buffer with protease inhibitors on ice. […] Protein quantity of the supernatant was determined using the Bradford reagent. […]

HDACs = tested on: HDACs; set-up: method as in PMID 18061431, PMID 30052654; details: cited from earlier work

T1 sequence (Q9GZT9 181-402): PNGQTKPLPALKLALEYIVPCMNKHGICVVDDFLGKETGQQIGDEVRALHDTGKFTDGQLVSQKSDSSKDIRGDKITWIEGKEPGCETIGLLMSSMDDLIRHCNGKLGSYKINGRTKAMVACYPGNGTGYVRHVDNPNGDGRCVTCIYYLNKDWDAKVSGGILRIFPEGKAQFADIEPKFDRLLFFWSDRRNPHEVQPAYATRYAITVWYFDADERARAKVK

change of IC50 with increasing 2-OG (PHD2_181-402 [1]; 2-OG at 1, 5, 10, 40 or 100 µM): did not change | Ki (PHD2_181-402 [1]; calculated from true IC50 with the IC50 to Ki conversion equation of Cer et al., read-out: noncompetitive Ki): 5.3 ± 0.5 mM | mode of inhibition (PHD2_181-402 [1]; from 2-OG titration, WaterLOGSY and MST): noncompetitive | IC50 (PHD2_181-402 [1]; read-out: True IC50): 5.3 ± 0.5 mM | binding to PHD2_181-402 (WaterLOGSY signal) (PHD2_181-402 [2]; listed as Butyric acid): indicating binding | Kd (PHD2_181-402 [3]): 2 ± 3 mM | binding to PHD2_181-402 in the presence of 2-OG (MST) (PHD2_181-402 [3]; 25 nM PHD2_181-402, with 500 nM 2-OG): no butyrate binding
SMILES: CCCC(=O)O [Butyrate]
binding to the 2-OG and PHD2_181-402 complex (WaterLOGSY) (PHD2_181-402 [2]; 10 mM butyrate, 25 μM PHD2_181-402, with 150 μM 2-OG): could not bind; also recorded: absence of binding | binding to PHD2_181-402 (WaterLOGSY signal) (PHD2_181-402 [2]): clear positive signal, indicative of binding | HIF-1α protein expression (murine enteroids): increased HIF-1α protein expression | HIF-1α target gene expression (murine enteroids): induced expression of HIF-1α target genes | HDAC inhibition (HDACs): most potently inhibits HDACs
